For assay [1], the target named is Bile salt export pump (Homo sapiens, UniProt O95342). Kind of assay: Inhibition of human BSEP expressed in plasma membrane vesicles of Sf21 cells assessed as inhibition of ATP-dependent [3H]taurocholate uptake. It counts as cell membranes.
The target of assay [2] is Bile salt export pump (Rattus norvegicus, UniProt O70127). Kind of assay: Inhibition of Sprague-Dawley rat Bsep expressed in plasma membrane vesicles of Sf21 cells assessed as inhibition of ATP-dependent [3H]taurocholate uptake. The format is cell membranes.

The structures appear in SMILES notation.

Chain of Bile salt export pump (Rattus norvegicus, UniProt O70127) (O70127 whole entry): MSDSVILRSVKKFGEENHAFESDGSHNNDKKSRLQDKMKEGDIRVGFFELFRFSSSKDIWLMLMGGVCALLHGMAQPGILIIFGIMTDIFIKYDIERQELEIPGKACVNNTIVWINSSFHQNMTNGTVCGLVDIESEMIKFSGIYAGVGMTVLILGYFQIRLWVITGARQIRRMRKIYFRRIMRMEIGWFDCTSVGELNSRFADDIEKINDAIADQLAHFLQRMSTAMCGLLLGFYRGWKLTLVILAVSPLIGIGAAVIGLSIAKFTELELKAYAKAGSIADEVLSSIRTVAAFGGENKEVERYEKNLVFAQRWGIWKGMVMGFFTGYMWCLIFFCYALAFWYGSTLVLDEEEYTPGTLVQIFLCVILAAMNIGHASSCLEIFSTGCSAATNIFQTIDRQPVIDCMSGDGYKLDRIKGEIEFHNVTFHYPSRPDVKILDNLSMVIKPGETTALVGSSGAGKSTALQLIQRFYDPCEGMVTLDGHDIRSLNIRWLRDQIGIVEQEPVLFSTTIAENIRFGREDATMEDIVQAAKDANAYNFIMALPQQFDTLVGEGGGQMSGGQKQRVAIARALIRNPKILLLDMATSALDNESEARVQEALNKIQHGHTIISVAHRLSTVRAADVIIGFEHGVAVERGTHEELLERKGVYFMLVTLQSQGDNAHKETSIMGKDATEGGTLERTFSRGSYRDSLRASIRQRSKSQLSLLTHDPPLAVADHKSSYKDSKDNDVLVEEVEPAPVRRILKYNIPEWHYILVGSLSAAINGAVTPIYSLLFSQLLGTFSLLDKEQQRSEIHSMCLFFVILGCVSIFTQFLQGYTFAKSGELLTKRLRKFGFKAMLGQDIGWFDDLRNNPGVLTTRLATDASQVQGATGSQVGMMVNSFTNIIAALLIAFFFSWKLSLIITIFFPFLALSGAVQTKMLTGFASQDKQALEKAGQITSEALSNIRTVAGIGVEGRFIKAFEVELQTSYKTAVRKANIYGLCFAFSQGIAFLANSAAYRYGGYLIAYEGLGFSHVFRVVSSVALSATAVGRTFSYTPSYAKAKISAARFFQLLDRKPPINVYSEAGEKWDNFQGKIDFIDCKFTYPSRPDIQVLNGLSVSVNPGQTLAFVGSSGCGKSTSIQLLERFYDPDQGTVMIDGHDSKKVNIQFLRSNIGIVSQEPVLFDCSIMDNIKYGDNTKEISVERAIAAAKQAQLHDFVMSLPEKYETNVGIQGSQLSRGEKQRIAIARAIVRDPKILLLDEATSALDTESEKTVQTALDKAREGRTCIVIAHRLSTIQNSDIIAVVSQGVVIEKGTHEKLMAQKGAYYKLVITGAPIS
Chain of Bile salt export pump (Homo sapiens, UniProt O95342) (O95342 whole entry): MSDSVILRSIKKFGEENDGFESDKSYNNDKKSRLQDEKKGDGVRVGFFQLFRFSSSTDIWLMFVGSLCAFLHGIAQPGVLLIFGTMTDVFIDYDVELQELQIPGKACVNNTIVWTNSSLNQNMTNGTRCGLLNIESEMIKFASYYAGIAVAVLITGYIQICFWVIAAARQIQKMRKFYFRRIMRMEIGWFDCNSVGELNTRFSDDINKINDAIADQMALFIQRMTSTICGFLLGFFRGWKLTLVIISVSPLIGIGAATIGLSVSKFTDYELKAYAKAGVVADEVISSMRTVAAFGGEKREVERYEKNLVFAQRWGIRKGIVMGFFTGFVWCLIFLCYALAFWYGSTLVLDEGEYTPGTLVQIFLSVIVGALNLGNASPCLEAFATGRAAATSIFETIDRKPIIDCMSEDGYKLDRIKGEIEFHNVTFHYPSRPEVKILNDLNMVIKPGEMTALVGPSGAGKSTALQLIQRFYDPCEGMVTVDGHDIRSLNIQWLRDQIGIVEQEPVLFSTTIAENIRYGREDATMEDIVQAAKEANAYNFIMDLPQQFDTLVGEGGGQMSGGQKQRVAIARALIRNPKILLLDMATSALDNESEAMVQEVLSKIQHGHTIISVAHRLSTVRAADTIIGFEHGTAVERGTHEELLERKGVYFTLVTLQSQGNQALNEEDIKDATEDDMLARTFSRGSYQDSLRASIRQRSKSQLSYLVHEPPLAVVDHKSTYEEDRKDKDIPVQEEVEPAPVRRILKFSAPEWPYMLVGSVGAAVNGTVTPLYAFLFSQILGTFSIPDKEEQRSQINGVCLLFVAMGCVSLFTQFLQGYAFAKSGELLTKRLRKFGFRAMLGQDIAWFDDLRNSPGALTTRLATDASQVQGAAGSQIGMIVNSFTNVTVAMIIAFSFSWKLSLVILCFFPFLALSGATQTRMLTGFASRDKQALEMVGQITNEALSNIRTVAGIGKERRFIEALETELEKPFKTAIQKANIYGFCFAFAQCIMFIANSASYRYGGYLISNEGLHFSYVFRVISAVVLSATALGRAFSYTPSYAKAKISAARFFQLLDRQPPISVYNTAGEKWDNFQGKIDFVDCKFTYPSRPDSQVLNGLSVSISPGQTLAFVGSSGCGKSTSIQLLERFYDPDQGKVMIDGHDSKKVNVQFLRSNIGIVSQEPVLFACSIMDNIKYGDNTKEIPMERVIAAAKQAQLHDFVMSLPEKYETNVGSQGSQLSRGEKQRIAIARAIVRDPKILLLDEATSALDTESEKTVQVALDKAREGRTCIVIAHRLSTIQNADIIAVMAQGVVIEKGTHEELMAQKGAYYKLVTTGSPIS

Broadly, the IC50 is the concentration that gives 50% inhibition. Regarding `CC(=O)O[C@H]1C[C@@]2(C)[C@@H](C[C@@H](O)[C@H]3[C@@]4(C)CC[C@@H](O)[C@@H](C)[C@@H]4CC[C@@]32C)/C1=C(\CCC=C(C)C)C(=O)O` [FUSIDIC ACID], the concentration for half-maximal inhibition (IC50) worked out at 11.5 µM in assay [1] and 17.4 µM in assay [2].

Turning to `CCCC(CCC)C(=O)O` [VALPROIC ACID], the IC50 in assay [1] and in assay [2] was above 1000 µM in each case.

As for `CCCN(CCC)C(=O)Cc1c(-c2ccc(Cl)cc2)nc2ccc(Cl)cn12` [ALPIDEM], the IC50 in assay [1] stood at 9.2 µM; in assay [2], 23 µM.

Regarding `NC(N)=Nc1nc(CSCCC(N)=NS(N)(=O)=O)cs1` [FAMOTIDINE], the IC50 in assay [1] and in assay [2] was above 1000 µM in each case.

In the case of `C[C@@H]1C[C@H]2[C@@H]3CCC4=CC(=O)C=C[C@]4(C)[C@@]3(F)[C@@H](O)C[C@]2(C)[C@@]1(O)C(=O)CO` [DEXAMETHASONE], the figures for the IC50 in assay [1] and in assay [2] were 137 µM and 232 µM, respectively.

In the case of `CN(C)CCCN1c2ccccc2Sc2ccc(Cl)cc21` [CHLORPROMAZINE], the 50% inhibitory concentration (IC50) in assay [1] came to 148 µM; in assay [2], 122 µM.

With `[H]/N=C(/N)N[C@H]1[C@H](O)[C@@H](O)[C@H](O[C@@H]2O[C@@H](C)[C@](O)(C=O)[C@H]2O[C@@H]2O[C@@H](CO)[C@H](O)[C@@H](O)[C@@H]2NC)[C@@H](N/C(N)=N\[H])[C@@H]1O` [STREPTOMYCIN], the IC50 in assay [1] and in assay [2] was above 1000 µM in each case.

With `CC(=O)Nc1ccc(OCC(O)CNC(C)C)cc1` (stereo unspecified) [PRACTOLOL], the half-inhibitory concentration (IC50) in assay [1] and in assay [2] was above 1000 µM each time.

Regarding `O=C1CC2(CCCC2)CC(=O)N1CCCCN1CCN(c2ncccn2)CC1` [BUSPIRONE], the IC50 is 105 µM in assay [1] and 370 µM in assay [2].

As for `C[C@H]1COc2c(N3CCN(C)CC3)c(F)cc3c(=O)c(C(=O)O)cn1c23` [LEVOFLOXACIN], the IC50 in assay [1] and in assay [2] was above 1000 µM each time.

In the case of `Cc1ccc(S(=O)(=O)NC(=O)NN2CC3CCCC3C2)cc1` (stereo unspecified) [GLICLAZIDE], the half-maximal inhibitory concentration (IC50) in assay [1] and in assay [2] was above 1000 µM throughout.

Turning to `C[C@](N)(Cc1ccc(O)c(O)c1)C(=O)O` [METHYLDOPA], the IC50 in assay [1] and in assay [2] was above 1000 µM each time.

For `NC(=O)N1c2ccccc2C=Cc2ccccc21` [CARBAMAZEPINE], the IC50 in assay [1] and in assay [2] was above 1000 µM in each case.

As to `COc1ccccc1Oc1c(NS(=O)(=O)c2ccc(C(C)(C)C)cc2)nc(-c2ncccn2)nc1OCCO` [BOSENTAN], the concentration for half-maximal inhibition (IC50) in assay [1] was found to be 38.1 µM; in assay [2], 30.6 µM.

As to `CC(N/C(=N\C#N)Nc1ccncc1)C(C)(C)C` (stereo unspecified) [PINACIDIL ANHYDROUS], the IC50 in assay [1] stood at 348 µM; in assay [2], 222 µM.

For `Cc1c(C)c2c(c(C)c1O)CCC(C)(COc1ccc(CC3SC(=O)NC3=O)cc1)O2` (stereo unspecified) [TROGLITAZONE], the IC50 turned out to be 2.7 µM in assay [1] and 10.6 µM in assay [2].

Take `CN(Cc1cnc2nc(N)nc(N)c2n1)c1ccc(C(=O)N[C@@H](CCC(=O)O)C(=O)O)cc1` [METHOTREXATE]: the IC50 in assay [1] and in assay [2] was above 1000 µM each time.

Consider `Cc1ncc(CO)c(CO)c1O` [PYRIDOXINE], for which the IC50 in assay [1] and in assay [2] was above 1000 µM each time.

As for `CCc1ccc(CCOc2ccc(CC3SC(=O)NC3=O)cc2)nc1` (stereo unspecified) [PIOGLITAZONE], the values for the IC50 in assay [1] and in assay [2] were 0.3 µM and 2 µM, respectively.

For the molecule `COc1cc2c(cc1OC)C(=O)C(CC1CCN(Cc3ccccc3)CC1)C2` (stereo unspecified) [DONEPEZIL], the half-inhibitory concentration (IC50) was 206 µM in assay [1] and 519 µM in assay [2].

Consider `COC(=O)C1=C(C)NC(C)=C(C(=O)OC)C1c1ccccc1[N+](=O)[O-]` [NIFEDIPINE], for which the IC50 in assay [1] is 30.7 µM; in assay [2], 45.4 µM.

For `CC(C)(Oc1ccc(CCNC(=O)c2ccc(Cl)cc2)cc1)C(=O)O` [BEZAFIBRATE], the results for the IC50 in assay [1] and in assay [2] were 232 µM and 391 µM, respectively.

Take `Cc1ccc(C(=O)c2cc(O)c(O)c([N+](=O)[O-])c2)cc1` [TOLCAPONE]: the values for the concentration for half-maximal inhibition (IC50) in assay [1] and in assay [2] were 120 µM and 47.2 µM, respectively.

Regarding `CC(C)(Oc1ccc(C2CC2(Cl)Cl)cc1)C(=O)O` (stereo unspecified) [CIPROFIBRATE], the 50% inhibitory concentration (IC50) in assay [1] came to 573 µM; in assay [2] it was 190 µM.

With `CN1Cc2c(N)cccc2C(c2ccccc2)C1` (stereo unspecified) [NOMIFENSINE], the half-maximal inhibitory concentration (IC50) in assay [1] and in assay [2] was above 1000 µM throughout.

Turning to `CC(C)NCC(O)c1ccc(O)c(O)c1` (stereo unspecified) [ISOPROTERENOL], the IC50 in assay [1] and in assay [2] was above 1000 µM in each case.

As to `Nc1c2c(nc3ccccc13)CCCC2` [TACRINE], the IC50 in assay [1] and in assay [2] was above 1000 µM throughout.

On to `COc1cc(C)c(/C=C/C(C)=C/C=C/C(C)=C/C(=O)O)c(C)c1C` [ACITRETIN], for which the values for the concentration for half-maximal inhibition (IC50) in assay [1] and in assay [2] were 18.2 µM and 19.7 µM, respectively.

Turning to `CCC(=O)O[C@H]1[C@H](O[C@@H]2[C@@H](C)[C@H](O[C@H]3C[C@@](C)(OC)[C@@H](O)[C@H](C)O3)[C@@H](C)C(=O)O[C@H](CC)[C@@](C)(O)[C@H](O)[C@@H](C)C(=O)[C@H](C)C[C@@]2(C)O)O[C@H](C)C[C@@H]1N(C)C` [ERYTHROMYCIN ESTOLATE], the IC50 in assay [1] turned out to be 4.1 µM; in assay [2] it was 11.4 µM.

Consider `C#CCN(C)Cc1ccccc1` [PARGYLINE], for which the IC50 in assay [1] and in assay [2] was above 1000 µM throughout.

As to `CC(C)Cc1ccc(C(C)C(=O)O)cc1` (stereo unspecified) [IBUPROFEN], the concentration for half-maximal inhibition (IC50) in assay [1] stood at 599 µM; in assay [2], 291 µM.

With `CCOC(=O)c1ncn2c1CN(C)C(=O)c1cc(F)ccc1-2` [FLUMAZENIL], the IC50 in assay [1] and in assay [2] was above 1000 µM throughout.

Regarding `CO[C@H]1/C=C/O[C@@]2(C)Oc3c(C)c(O)c4c(O)c(c(/C=N/N5CCN(C)CC5)c(O)c4c3C2=O)NC(=O)/C(C)=C\C=C\[C@H](C)[C@H](O)[C@@H](C)[C@@H](O)[C@@H](C)[C@H](OC(C)=O)[C@@H]1C` [RIFAMPIN], the IC50 worked out at 11.3 µM in assay [1] and 34.7 µM in assay [2].

These data come from ChEMBL document CHEMBL3526080, “In vitro inhibition of the bile salt export pump correlates with risk of cholestatic drug-induced liver injury in humans” (Drug Metab Dispos, 2012).
